Experimental data taken from patent US7317013B2 (priority 2003, dated 2008).
Where a name gives a salt, the structure may show the parent alone.

How the values were obtained:
[1] = target: T1, airway epithelial sodium currents (epithelial Na+ channel, ENaC) (Canis lupus familiaris, UniProt A0A8I3MKE6+A0A8I3Q679+Q95165); experiment: Sodium channel blocking activity: inhibition of short circuit current (ISC) in airway epithelial monolayers mounted in Ussing chambers; assay type: cell-based, canine; details: for Fold Amiloride** (PSA 4022 = 100): relative potency for PSA 4022 = 100 using EC50 from PSA 4022 in same run
T1 sequence (A0A8I3Q679 1-649): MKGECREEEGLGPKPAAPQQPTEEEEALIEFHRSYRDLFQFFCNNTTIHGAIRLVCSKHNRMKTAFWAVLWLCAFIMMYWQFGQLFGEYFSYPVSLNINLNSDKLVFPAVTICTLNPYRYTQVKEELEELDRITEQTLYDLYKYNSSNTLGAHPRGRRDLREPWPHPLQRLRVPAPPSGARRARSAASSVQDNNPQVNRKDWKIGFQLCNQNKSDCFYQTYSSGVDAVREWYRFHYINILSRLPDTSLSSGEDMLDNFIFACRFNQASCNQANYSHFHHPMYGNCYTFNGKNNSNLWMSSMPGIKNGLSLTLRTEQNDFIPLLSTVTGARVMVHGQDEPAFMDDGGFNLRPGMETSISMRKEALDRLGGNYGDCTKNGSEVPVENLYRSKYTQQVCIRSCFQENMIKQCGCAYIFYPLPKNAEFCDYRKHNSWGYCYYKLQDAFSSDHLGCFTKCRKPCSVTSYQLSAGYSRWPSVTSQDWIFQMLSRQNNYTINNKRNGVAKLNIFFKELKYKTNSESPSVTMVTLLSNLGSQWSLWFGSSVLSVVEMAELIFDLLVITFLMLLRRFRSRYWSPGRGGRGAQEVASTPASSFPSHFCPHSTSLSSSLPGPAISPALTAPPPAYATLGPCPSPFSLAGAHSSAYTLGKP
T1 sequence (Q95165 1-641): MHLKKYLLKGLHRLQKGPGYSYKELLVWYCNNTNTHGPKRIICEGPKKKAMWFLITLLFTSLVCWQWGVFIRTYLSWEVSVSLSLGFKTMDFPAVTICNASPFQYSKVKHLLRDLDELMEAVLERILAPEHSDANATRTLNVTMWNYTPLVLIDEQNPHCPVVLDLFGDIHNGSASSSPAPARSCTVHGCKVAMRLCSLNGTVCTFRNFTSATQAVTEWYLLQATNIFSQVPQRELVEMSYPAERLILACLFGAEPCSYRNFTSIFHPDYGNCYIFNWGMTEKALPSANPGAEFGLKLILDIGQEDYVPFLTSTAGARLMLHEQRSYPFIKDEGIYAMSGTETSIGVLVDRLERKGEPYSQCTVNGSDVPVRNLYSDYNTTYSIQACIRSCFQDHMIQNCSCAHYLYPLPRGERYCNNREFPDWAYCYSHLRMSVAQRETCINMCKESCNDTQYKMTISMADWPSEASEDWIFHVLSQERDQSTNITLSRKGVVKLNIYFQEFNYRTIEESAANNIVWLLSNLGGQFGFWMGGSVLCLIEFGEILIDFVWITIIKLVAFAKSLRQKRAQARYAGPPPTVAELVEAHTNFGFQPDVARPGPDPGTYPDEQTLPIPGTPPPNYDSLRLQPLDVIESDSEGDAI
T1 sequence (A0A8I3MKE6 1-646): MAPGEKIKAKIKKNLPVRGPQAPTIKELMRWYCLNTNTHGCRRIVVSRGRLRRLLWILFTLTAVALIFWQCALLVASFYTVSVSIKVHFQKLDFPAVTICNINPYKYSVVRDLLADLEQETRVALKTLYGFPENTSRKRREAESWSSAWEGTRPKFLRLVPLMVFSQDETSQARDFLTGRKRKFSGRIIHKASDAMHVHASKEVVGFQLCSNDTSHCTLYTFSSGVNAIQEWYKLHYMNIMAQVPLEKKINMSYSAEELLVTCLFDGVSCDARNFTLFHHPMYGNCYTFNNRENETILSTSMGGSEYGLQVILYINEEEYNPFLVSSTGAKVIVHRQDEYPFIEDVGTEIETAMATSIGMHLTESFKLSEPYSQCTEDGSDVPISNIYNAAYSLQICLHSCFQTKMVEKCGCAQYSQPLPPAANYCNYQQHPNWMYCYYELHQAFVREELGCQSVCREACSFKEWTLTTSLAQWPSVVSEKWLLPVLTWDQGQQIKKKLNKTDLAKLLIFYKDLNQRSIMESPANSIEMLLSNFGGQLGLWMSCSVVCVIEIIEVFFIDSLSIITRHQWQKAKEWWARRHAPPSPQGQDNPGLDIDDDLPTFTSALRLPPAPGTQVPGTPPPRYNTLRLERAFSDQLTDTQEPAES
Protocol: One assay used to assess mechanism of action and/or potency of the compounds of the present invention involves the determination of lumenal drug inhibition of airway epithelial sodium currents measured under short circuit current (ISC) using airway epithelial monolayers mounted in Ussing chambers. Cells obtained from freshly excised human, dog, sheep or rodent airways are seeded onto porous 0.4 micron Snapwell™ Inserts (CoStar), cultured at air-liquid interface (ALI) conditions in hormonally defined media, and assayed for sodium transport activity (ISC) while bathed in Krebs Bicarbonate Ringer (KBR) in Using chambers. All test drug additions are to the lumenal bath with half-log dose addition protocols (from 1×10^−11 M to 3×10^−5 M), and the cumulative change in ISC (inhibition) recorded. All drugs are prepared in dimethyl sulfoxide as stock solutions at a concentration of 1×10^−2 M and stored at −20° C. Eight preparations are typically run in parallel; two preparations per run incorporate amiloride and/or benzamil as positive controls. After the maximal concentration (5×10^−5 M) is administered, the lumenal bath is exchanged three times with fresh drug-free KBR solution, and the resultant ISC measured after each wash for approximately 5 minutes in duration. Reversibility is defined as the percent return to the baseline value for sodium current after the third wash. All data from the voltage clamps are collected via a computer interface and analyzed off-line.
Dose-effect relationships for all compounds are considered and analyzed by the Prism 3.0 program. IC50 values, maximal effective concentrations, and reversibility are calculated and compared to amiloride and benzamil as positive controls.
Statistics: Data were analyzed using SYSTAT for Windows, version 5. Data were analyzed using a two-way repeated ANOVA (to assess overall effects), followed by a paried t-test to identify differences between specific pairs. Significance was accepted when P was less than or equal to 0.05. […] The compounds can be further tested tested for potency in canine bronchial epithelia using the in vitro assay described above. The results for the compounds of the present invention are reported as fold-enhancement values relative to amiloride.

| Structure (SMILES) | melting point [°C] | Fold Amiloride** (PSA 4022 = 100) [1] | EC50 ([1]; lumenal drug addition, bronchial epithelia, mean ± spread (n in cell)) [nM] |
| --- | --- | --- | --- |
| N=C(NCCCCC1CCN(CC(O)CO)CC1)NC(=O)c1nc(Cl)c(N)nc1N (centres unmarked) | 188 to 191 |  |  |
| N=C(NCCCCC1CCN(CCCO)CC1)NC(=O)c1nc(Cl)c(N)nc1N (as salt: hydrochloride) | 165 to 167 |  |  |
| N=C(NCCCCC1CCN(CCN)CC1)NC(=O)c1nc(Cl)c(N)nc1N (as salt: hydrochloride) | > 200 |  |  |
| N=C(NCCCCC1CCN(CCCN)CC1)NC(=O)c1nc(Cl)c(N)nc1N (as salt: hydrochloride) | 105 to 108 |  |  |
| N=C(N)NCCCN1CCC(CCCCNC(=N)NC(=O)c2nc(Cl)c(N)nc2N)CC1 (as salt: hydrochloride) | 176 to 178 |  |  |
| N=C(NCCCCC1CCN(CCO)CC1)NC(=O)c1nc(Cl)c(N)nc1N [compound 25193] |  | 8 ± 3 (n = 6) |  |
| N=C(NCCCCC1CCN(CCCO)CC1)NC(=O)c1nc(Cl)c(N)nc1N [compound 25310] |  | 5 ± 2 (n = 8) |  |
| CC(C)(C)OC(=O)NCCCN1CCC(CCCCNC(=N)NC(=O)c2nc(Cl)c(N)nc2N)CC1 [compound 25452] |  | 8 ± 1 (n = 6) |  |
| N=C(NCCCCC1CCN(CCN)CC1)NC(=O)c1nc(Cl)c(N)nc1N [compound 25455] |  | 5 ± 1 (n = 7) |  |
| N=C(NCCCCC1CCN(CC(O)CO)CC1)NC(=O)c1nc(Cl)c(N)nc1N (centres unmarked) [compound 25456] |  | 6 ± 2 (n = 7) |  |
| N=C(NCCCCC1CCN(CCCN)CC1)NC(=O)c1nc(Cl)c(N)nc1N [compound 25510] |  | 3 ± 9 (n = 7) |  |
| CC(C)(C)OC(=O)N=C(NCCCN1CCC(CCCCNC(=N)NC(=O)c2nc(Cl)c(N)nc2N)CC1)NC(=O)OC(C)(C)C [compound 25569] |  | 41 ± 9 (n = 9) |  |
| Cl.Cl.Cl.N=C(N)NCCCN1CCC(CCCCNC(=N)NC(=O)c2nc(Cl)c(N)nc2N)CC1 [compound 25795] |  | 18 ± 7 (n = 4) | 37 ± 5 |
